The source of these data is US5834431A, “Des-Arg^9 -BK antagonists” (Cortech, Inc., priority 1995, dated 1998).

Test [1] addresses T1, B2 receptor (Cavia porcellus, UniProt O70526).
T1 construct: from tissue
T1 sequence (O70526 1-372): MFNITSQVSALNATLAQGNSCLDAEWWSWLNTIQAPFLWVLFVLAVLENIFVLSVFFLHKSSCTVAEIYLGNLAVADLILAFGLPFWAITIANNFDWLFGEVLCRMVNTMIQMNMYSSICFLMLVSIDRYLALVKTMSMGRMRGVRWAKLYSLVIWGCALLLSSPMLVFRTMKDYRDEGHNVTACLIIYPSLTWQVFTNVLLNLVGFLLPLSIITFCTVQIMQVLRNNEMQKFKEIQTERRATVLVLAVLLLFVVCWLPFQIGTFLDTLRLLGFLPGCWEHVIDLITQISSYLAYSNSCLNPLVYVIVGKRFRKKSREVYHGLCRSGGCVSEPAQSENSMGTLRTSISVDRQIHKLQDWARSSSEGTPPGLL
As to the kind of experiment: GPI binding B2. Particulars: i.a. = inactive; for IC50: read-out: GPI Binding - pIC50 B2 (converted).

Test [2] addresses T2, B2 receptor (Homo sapiens, UniProt P30411).
T2 construct: expressed in transfected cells
T2 sequence (P30411 1-391): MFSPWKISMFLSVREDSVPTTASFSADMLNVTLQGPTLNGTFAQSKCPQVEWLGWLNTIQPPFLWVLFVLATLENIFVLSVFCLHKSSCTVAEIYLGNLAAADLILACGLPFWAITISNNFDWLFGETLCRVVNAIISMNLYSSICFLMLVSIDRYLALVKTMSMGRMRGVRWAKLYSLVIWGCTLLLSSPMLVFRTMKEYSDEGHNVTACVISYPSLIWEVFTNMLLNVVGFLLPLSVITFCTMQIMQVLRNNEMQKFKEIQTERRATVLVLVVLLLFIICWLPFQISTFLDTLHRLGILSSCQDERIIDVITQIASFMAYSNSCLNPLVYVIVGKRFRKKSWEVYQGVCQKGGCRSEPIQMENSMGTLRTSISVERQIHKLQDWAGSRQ
As to the kind of experiment: Human B2 binding, human BK2 clone membranes, 3H-Bradykinin. Particulars: 0.3 nM 3H-Bradykinin, i.a. = inactive; for IC50: read-out: Human Binding - pIC50 B2 (converted). The method, then:
(§1) Human lung fibroblasts IMR-90 cells were obtained from ATCC and propagated in DMEM media in […] roller bottles until confluent. Three hours prior to harvesting, the cells were treated with Interleukin lb (200 pg/ml). Human BK2 clones were propagated in F12 media until confluent. Preparation of membranes for binding assays was carried out by scraping cells from roller bottles in ice cold PBS and centrifuging at 1000 ×g, at 4° C. for 15 minutes. The supernatant was discarded and pellet resuspended in Buffer A consisting of 25 mM TES(pH 6.8) with 2 uM 1,10-Phenanthroline, and centrifuged at 27,000 ×g for 15 min. this was then repeated. The final pellet was resuspended in Buffer B (Buffer A with 2 uM Captopril, 140 ug/Ml Bacitracin, 0.1%BSA), and stored in 1 ml aliquots, frozen at -20° C. until needed.
Binding assays were performed by incubating human clone membranes with 0.3 nM ^3 H-Bradykinin or IMR-90 membranes with 0.5 nM ^3 H-des-Arg^9 -Kallidin in the presence of the peptides in assay buffer (Buffer B with 1 mM Dithiotreitol), at room temperature, for 45 minutes. All test compound dilutions were in triplicate. Assays were harvested by quick filtration in a Tomtec Harvester 96, with ice cold wash buffer consisting of 10 mM Tris/HCl, pH 7.5, 100 mM NaCl, 0.02%BSA, onto Wallec printed glassfiber Filtermat "B", which had been pre-soaked with 0.1% PEI and previously air-dried. Filtermats were counted in 9.5 mls Wallec Beta-Plate Scint, in Wallec 1450 MicroBeta Counter.

For the next test, the target named is T3, B1 receptor (Homo sapiens, UniProt P46663).
T3 construct: Human lung fibroblasts IMR-90 cells were obtained from ATCC and propagated in DMEM media; host or cells: IMR-90 human lung fibroblasts, treated with interleukin 1b three hours before harvest; membranes
T3 sequence (P46663 1-353): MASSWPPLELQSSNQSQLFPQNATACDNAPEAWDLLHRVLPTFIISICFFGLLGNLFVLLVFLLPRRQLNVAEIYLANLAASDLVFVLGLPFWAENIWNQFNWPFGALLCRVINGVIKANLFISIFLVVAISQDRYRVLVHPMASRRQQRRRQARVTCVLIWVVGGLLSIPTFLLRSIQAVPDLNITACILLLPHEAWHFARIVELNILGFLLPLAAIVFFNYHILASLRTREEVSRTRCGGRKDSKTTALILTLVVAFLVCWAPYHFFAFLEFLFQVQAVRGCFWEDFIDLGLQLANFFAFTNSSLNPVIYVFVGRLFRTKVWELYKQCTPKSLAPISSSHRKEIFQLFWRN
Description: Human B1 binding, IL-1b-treated IMR-90 membranes, 3H-des-Arg9-Kallidin. The note with it: 0.5 nM 3H-des-Arg9-Kallidin, pIC50 = -log of molar IC50. The protocol: as §1
Binding assays were performed by incubating human clone membranes with 0.3 nM ^3 H-Bradykinin or IMR-90 membranes with 0.5 nM ^3 H-des-Arg^9 -Kallidin in the presence of the peptides in assay buffer (Buffer B with 1 mM Dithiotreitol), at room temperature, for 45 minutes. All test compound dilutions were in triplicate. Assays were harvested by quick filtration in a Tomtec Harvester 96, with ice cold wash buffer consisting of 10 mM Tris/HCl, pH 7.5, 100 mM NaCl, 0.02%BSA, onto Wallec printed glassfiber Filtermat "B", which had been pre-soaked with 0.1% PEI and previously air-dried.

Square brackets hold non-standard residues; d marks the D form. Peptide text beside a SMILES is read from it. * marks the point of attachment. Oic = O=C(O)[C@@H]1C[C@@H]2CCCC[C@@H]2N1; X1 = N=C(N)NCCC[C@@H](NC(=N)N)C(=O)*; dIgl = N[C@@H](C(=O)O)C1Cc2ccccc2C1; Gly(cPent) = N[C@H](C(=O)O)C1CCCC1; Igl = N[C@H](C(=O)O)C1Cc2ccccc2C1; Hyp = O=C(O)[C@@H]1C[C@@H](O)CN1; Tic = O=C(O)[C@@H]1Cc2ccccc2CN1; dTic = O=C(O)[C@H]1Cc2ccccc2CN1; 2Thi = N[C@@H](Cc1cccs1)C(=O)O

Turning to `N=C(N)NCCC[C@@H](N)C(=O)N[C@@H](CCCNC(=N)N)C(=O)N1CCC[C@H]1C(=O)N1C[C@H](O)C[C@H]1C(=O)NCC(=O)N[C@H](C(=O)N[C@@H](CO)C(=O)N1Cc2ccccc2C[C@H]1C(=O)N[C@H](C(=O)O)C1CCCC1)C1CCCC1` [B9004, DArg-Arg-Pro-Hyp-Gly-Cpg-Ser-Tic-Cpg] (H-[dR]RP[Hyp]G[Gly(cPent)]S[Tic][Gly(cPent)]-OH), the IC50 was 6310 nM on B2 receptor [1], 1580 nM on B2 receptor [2] and 3.16 nM at B1 receptor.

For the compound `N=C(N)NCCC[C@@H](N)C(=O)N[C@@H](CCCNC(=N)N)C(=O)N1CCC[C@H]1C(=O)N1C[C@H](O)C[C@H]1C(=O)NCC(=O)N[C@@H](Cc1cccs1)C(=O)N[C@@H](CO)C(=O)N1Cc2ccccc2C[C@H]1C(=O)N[C@H](C(=O)O)C1CCCC1` [B9006, DArg-Arg-Pro-Hyp-Gly-Thi-Ser-Tic-Cpg] (H-[dR]RP[Hyp]G[2Thi]S[Tic][Gly(cPent)]-OH), the IC50 on B2 receptor [1] was 10000 nM; at B2 receptor [2] it was 631 nM; at B1 receptor it was 12.6 nM.

On to `N=C(N)NCCC[C@@H](N)C(=O)N[C@@H](CCCNC(=N)N)C(=O)N1CCC[C@H]1C(=O)N1C[C@H](O)C[C@H]1C(=O)NCC(=O)N[C@@H](Cc1cccs1)C(=O)N[C@@H](CO)C(=O)N1Cc2ccccc2C[C@@H]1C(=O)N[C@H](C(=O)O)C1CCCC1` [B9068, DArg-Arg-Pro-Hyp-Gly-Thi-Ser-DTic-Cpg] (H-[dR]RP[Hyp]G[2Thi]S[dTic][Gly(cPent)]-OH), for which the values for the IC50 on B2 receptor [1], on B2 receptor [2] and on B1 receptor were 7940 nM, 2000 nM and 1.58 nM, respectively.

Turning to `CC(C)C[C@H](NC(=O)[C@@H]1CCCN1C(=O)[C@H](CO)NC(=O)[C@H](Cc1ccccc1)NC(=O)CNC(=O)[C@@H]1CCCN1C(=O)[C@@H]1CCCN1C(=O)[C@H](CCCNC(=N)N)NC(=O)[C@H](CCCCN)NC(=O)CNC(=N)N)C(=O)O` [B9810], at B2 receptor [1], the “GPI Binding - pIC50 B2” value is recorded as “i.a”. Moreover, the “Human Binding - pIC50 B2” value on B2 receptor [2] is on record as “i.a”.

On to `CC(C)C[C@H](NC(=O)[C@H](NC(=O)[C@H](CO)NC(=O)[C@@H](NC(=O)CNC(=O)[C@@H]1C[C@@H](O)CN1C(=O)[C@@H]1CCCN1C(=O)[C@@H](N)CCCNC(=N)N)C1Cc2ccccc2C1)C1Cc2ccccc2C1)C(=O)O` [B9814, Arg-Pro-Hyp-Gly-Igl-Ser-DIgl-Leu] (H-RP[Hyp]G[Igl]S[dIgl]L-OH), for which the “GPI Binding - pIC50 B2” value on B2 receptor [1] was “i.a”. For the same compound, the “Human Binding - pIC50 B2” value at B2 receptor [2] is given as “i.a”. For the same compound, the IC50 on B1 receptor is 6.31 nM.

Regarding `CC(C)C[C@H](NC(=O)[C@H](NC(=O)[C@H](CO)NC(=O)[C@@H](NC(=O)CNC(=O)[C@@H]1C[C@@H](O)CN1C(=O)[C@@H]1CCCN1C(=O)[C@H](CCCNC(=N)N)NC(=O)[C@H](N)CCCNC(=N)N)C1Cc2ccccc2C1)C1Cc2ccccc2C1)C(=O)O` [B9816, DArg-Arg-Pro-Hyp-Gly-Igl-Ser-DIgl-Leu] (H-[dR]RP[Hyp]G[Igl]S[dIgl]L-OH), the IC50 is 2000 nM at B2 receptor [1], 631 nM at B2 receptor [2] and 1.26 nM at B1 receptor.

For `N=C(N)NCCC[C@H](NC(=O)[C@@H](CCCNC(=N)N)NC(=N)N)C(=O)N1CCC[C@H]1C(=O)N1C[C@H](O)C[C@H]1C(=O)NCC(=O)N[C@@H](Cc1cccs1)C(=O)N[C@@H](CO)C(=O)N[C@@H](C(=O)N1[C@H](C(=O)O)C[C@@H]2CCCC[C@@H]21)C1Cc2ccccc2C1` [B9826, Gun- DArg-Arg-Pro-Hyp-Gly-Thi-Ser-DIgl-Oic] (X1-RP[Hyp]G[2Thi]S[dIgl][Oic]-OH), the results for the IC50 on B2 receptor [1], at B2 receptor [2] and at B1 receptor were 79.4 nM, 7.94 nM and 0.126 nM, respectively.

On to `N=C(N)NCCC[C@@H](N)C(=O)N[C@@H](CCCNC(=N)N)C(=O)N1CCC[C@H]1C(=O)N1C[C@H](O)C[C@H]1C(=O)NCC(=O)N[C@H](C(=O)N[C@@H](CO)C(=O)N1Cc2ccccc2C[C@@H]1C(=O)N[C@H](C(=O)O)C1CCCC1)C1Cc2ccccc2C1` [B9840, DArg-Arg-Pro-Hyp-Gly-Igl-Ser-DTic-Cpg] (H-[dR]RP[Hyp]G[Igl]S[dTic][Gly(cPent)]-OH), for which the “GPI Binding - pIC50 B2” value at B2 receptor [1] is “i.a”. Also, the results for the IC50 on B2 receptor [2] and on B1 receptor were 631 nM and 0.794 nM, respectively.
